Data: ChEMBL document CHEMBL6134807, “A review-plant medicine and its extraction components inhibit influenza virus” (Bioorg Med Chem Lett, 2025)

System: Influenza B virus
Assay: Antiviral activity against Influenza virus […] B/Panama/45/1990 infected in MDCK cells at 0.001 MOI assessed as inhibition of virus cytopathic effect measured after 48 hrs by crystal violet staining based assay
Format: functional, organism-based
Conditions: B/Panama/45/1990, MDCK

Row | SMILES | EC50 [µM]
1 | COc1cc(/C=C/C(=O)CC(=O)/C=C/c2ccc(O)c(OC)c2)ccc1O [CURCUMIN] | 0.47
2 | O=C(O[C@@H]1Cc2c(O)cc(O)cc2O[C@@H]1c1ccc(O)c(O)c1)c1cc(O)c(O)c(O)c1 [EPICATECHIN GALLATE] | 22
3 | O=C(O[C@@H]1Cc2c(O)cc(O)cc2O[C@@H]1c1cc(O)c(O)c(O)c1)c1cc(O)c(O)c(O)c1 [EPIGALOCATECHIN GALLATE] | 5.7
